Measurements reported in patent US8916498B2, “Safening 6-(trisubstituted phenyl)-4-amino-2-pyridinecarboxylate herbicide injury on direct seeded and transplanted paddy rice” (priority 2008, dated 2014).
Where “and” joins values, the source holds several entries; their conditions need not be identical. Identical values can stand only once.

Experiments:
ORYSA (rice) = test: Postemergence herbicidal safening in direct seeded rice, visual injury; settings: for Visual Injury (%) ‘Lemont’ ORYSA Obs / ‘M202’ ORYSA Visual Injury (%) Obs: after 3 weeks
Excerpt: A=observed efficacy of active ingredient A at the same concentration as used in the mixture.
B=observed efficacy of active ingredient B at the same concentration as used in the mixture.

ECHCO = test: Postemergence herbicidal safening in direct seeded rice, visual injury on weed; type: in vivo; settings: alone, after 3 weeks
SEBEX = test: as above; type: in vivo; settings: alone, after 3 weeks
CYPDI = test: as above; type: in vivo; settings: alone, after 3 weeks
[1] = alone, 17.5 g ae/ha, after 3 weeks (Table 14)
[2] = alone, 35 g ae/ha, after 3 weeks (Table 14)
[3] = alone, 8.75 g ae/ha, after 3 weeks (Table 14)
[4] = No safener, 17.5 g ai/ha, after 3 weeks (Table 12)
[5] = No safener, 35 g ai/ha, after 3 weeks (Table 13)
[6] = alone, 70 g ae/ha, after 3 weeks (Table 14)

## O=C(C(Cl)Cl)N1CCOC12CCCCC2 [AD67]
ORYSA (rice); safener 140 g ai/ha alone
  ORYSA Visual Injury (%) ‘Lemont’ Obs: 0%
  ORYSA Visual Injury (%) ‘M202’ Obs: 0%
ORYSA (rice); safener 280 g ai/ha alone
  ORYSA Visual Injury (%) ‘M202’ Obs: 15%

## CCC(C)OC(=O)COc1ccc(Cl)c2cccnc12 (stereo not drawn) [Cloquintocet 1-Methylpropyl Ester]
ORYSA (rice); alone, 280 g ae/ha
  Visual Injury (%) ‘Lemont’ ORYSA Obs: 0%
ECHCO; 280 g ae/ha
  Visual Injury (%) ECHCO Obs: 0%
SEBEX; 280 g ae/ha
  Visual Injury (%) SEBEX Obs: 0%
CYPDI; 280 g ae/ha
  Visual Injury (%) CYPDI Obs: 0%

## CCOC(=O)COc1ccc(Cl)c2cccnc12 [Cloquintocet Ethyl Ester]
ORYSA (rice); alone, 280 g ae/ha
  Visual Injury (%) ‘Lemont’ ORYSA Obs: 0%
ECHCO; 280 g ae/ha
  Visual Injury (%) ECHCO Obs: 0%
SEBEX; 280 g ae/ha
  Visual Injury (%) SEBEX Obs: 0%
CYPDI; 280 g ae/ha
  Visual Injury (%) CYPDI Obs: 0%

## COC(=O)COc1ccc(Cl)c2cccnc12 [Cloquintocet Methyl Ester]
ORYSA (rice); alone, 280 g ae/ha
  Visual Injury (%) ‘Lemont’ ORYSA Obs: 0%
ECHCO; 280 g ae/ha
  Visual Injury (%) ECHCO Obs: 0%
SEBEX; 280 g ae/ha
  Visual Injury (%) SEBEX Obs: 0%
CYPDI; 280 g ae/ha
  Visual Injury (%) CYPDI Obs: 0%

## CC(C)OC(=O)COc1ccc(Cl)c2cccnc12 [Cloquintocet i-Propyl Ester]
ORYSA (rice); alone, 280 g ae/ha
  Visual Injury (%) ‘Lemont’ ORYSA Obs: 0%
ECHCO; 280 g ae/ha
  Visual Injury (%) ECHCO Obs: 0%
SEBEX; 280 g ae/ha
  Visual Injury (%) SEBEX Obs: 0%
CYPDI; 280 g ae/ha
  Visual Injury (%) CYPDI Obs: 0%

## C=CCOC(=O)c1nc(-c2ccc(Cl)c(OC)c2F)cc(N)c1Cl [Compound 1 Allyl Ester]
ORYSA (rice); [1]
  ORYSA Visual Injury (%) ‘Cheniere’ Obs: 55%
  ORYSA Visual Injury (%) ‘Clearfield’ Obs: 50%
  ORYSA Visual Injury (%) ‘Cocodrie’ Obs: 30%
  ORYSA Visual Injury (%) ‘Lemont’ Obs: 25%
  ORYSA Visual Injury (%) ‘M202’ Obs: 55%
  ORYSA Visual Injury (%) ‘Wells’ Obs: 10%

## CCCCOCCOC(=O)c1nc(-c2ccc(Cl)c(OC)c2F)cc(N)c1Cl [Compound 1 Et butoxy Ester]
ORYSA (rice); [2]
  ORYSA Visual Injury (%) ‘Cheniere’ Obs: 50%
  ORYSA Visual Injury (%) ‘Clearfield’ Obs: 40%
  ORYSA Visual Injury (%) ‘Cocodrie’ Obs: 50%
  ORYSA Visual Injury (%) ‘Lemont’ Obs: 50%
  ORYSA Visual Injury (%) ‘M202’ Obs: 30%
  ORYSA Visual Injury (%) ‘Wells’ Obs: 15%

## COc1c(Cl)ccc(-c2cc(N)c(Cl)c(C(=O)[O-])n2)c1F.[K+] [Compound 1 K^+ Salt]
ORYSA (rice); [3]
  ORYSA Visual Injury (%) ‘Cheniere’ Obs: 50%
  ORYSA Visual Injury (%) ‘Clearfield’ Obs: 45%
  ORYSA Visual Injury (%) ‘Cocodrie’ Obs: 30%
  ORYSA Visual Injury (%) ‘Lemont’ Obs: 40%
  ORYSA Visual Injury (%) ‘M202’ Obs: 50%
  ORYSA Visual Injury (%) ‘Wells’ Obs: 0%

## COC(=O)c1nc(-c2ccc(Cl)c(OC)c2F)cc(N)c1Cl [Compound 1 Methyl Ester]
ORYSA (rice); No safener, 17.5 g ai/ha
  ‘M202’ ORYSA Visual Injury (%) Obs: 15.0%
ORYSA (rice); [4]
  ORYSA Visual Injury (%) ‘Cheniere’ Obs: 20%
  ORYSA Visual Injury (%) ‘Cocodrie’ Obs: 13%
  ORYSA Visual Injury (%) ‘M202’ Obs: 45%
ORYSA (rice); No safener, 35 g ai/ha
  ‘M202’ ORYSA Visual Injury (%) Obs: 35.0%
ORYSA (rice); alone, 17.5 g ae/ha
  Visual Injury (%) ‘Lemont’ ORYSA Obs: 15%
ORYSA (rice); [1]
  ORYSA Visual Injury (%) ‘Cheniere’ Obs: 85%
  ORYSA Visual Injury (%) ‘Clearfield’ Obs: 45%
  ORYSA Visual Injury (%) ‘Cocodrie’ Obs: 55%
  ORYSA Visual Injury (%) ‘Lemont’ Obs: 40%
  ORYSA Visual Injury (%) ‘M202’ Obs: 25%
  ORYSA Visual Injury (%) ‘Wells’ Obs: 10%
ORYSA (rice); alone, 35 g ae/ha
  Visual Injury (%) ‘Lemont’ ORYSA Obs: 35%
ORYSA (rice); alone, 70 g ae/ha
  Visual Injury (%) ‘Lemont’ ORYSA Obs: 45%
ORYSA (rice); alone, 70 g ai/ha
  Visual Injury (%) ‘Lemont’ ORYSA Obs: 50% and 25%
ECHCO; 17.5 g ae/ha
  Visual Injury (%) ECHCO Obs: 99%
ECHCO; 35 g ae/ha
  Visual Injury (%) ECHCO Obs: 99%
ECHCO; 35 g ai/ha
  Visual Injury (%) ECHCO Obs: 95% and 100%
ECHCO; 70 g ae/ha
  Visual Injury (%) ECHCO Obs: 100%
ECHCO; 70 g ai/ha
  Visual Injury (%) ECHCO Obs: 99% and 100%
SEBEX; 17.5 g ae/ha
  Visual Injury (%) SEBEX Obs: 100%
SEBEX; 35 g ae/ha
  Visual Injury (%) SEBEX Obs: 100%
SEBEX; 35 g ai/ha
  Visual Injury (%) SEBEX Obs: 100%
SEBEX; 70 g ae/ha
  Visual Injury (%) SEBEX Obs: 100%
SEBEX; 70 g ai/ha
  Visual Injury (%) SEBEX Obs: 100%
CYPDI; 17.5 g ae/ha
  Visual Injury (%) CYPDI Obs: 100%
CYPDI; 35 g ae/ha
  Visual Injury (%) CYPDI Obs: 100%
CYPDI; 35 g ai/ha
  Visual Injury (%) CYPDI Obs: 100%
CYPDI; 70 g ae/ha
  Visual Injury (%) CYPDI Obs: 100%
CYPDI; 70 g ai/ha
  Visual Injury (%) CYPDI Obs: 100%

## C#CCOC(=O)c1nc(-c2ccc(Cl)c(OC)c2F)cc(N)c1Cl [Compound 1 Propargyl Ester]
ORYSA (rice); [3]
  ORYSA Visual Injury (%) ‘Cheniere’ Obs: 55%
  ORYSA Visual Injury (%) ‘Clearfield’ Obs: 50%
  ORYSA Visual Injury (%) ‘Cocodrie’ Obs: 35%
  ORYSA Visual Injury (%) ‘Lemont’ Obs: 30%
  ORYSA Visual Injury (%) ‘M202’ Obs: 55%
  ORYSA Visual Injury (%) ‘Wells’ Obs: 10%

## CCCCOC(=O)c1nc(-c2ccc(Cl)c(OC)c2F)cc(N)c1Cl [Compound 1 n-Butyl Ester]
ORYSA (rice); [5]
  ORYSA Visual Injury (%) ‘Cheniere’ Obs: 25%
  ORYSA Visual Injury (%) ‘Cocodrie’ Obs: 20%
  ORYSA Visual Injury (%) ‘M202’ Obs: 28%

## CCCOC(=O)c1nc(-c2ccc(Cl)c(OC)c2F)cc(N)c1Cl [Compound 1 n-Propyl Ester]
ORYSA (rice); [6]
  ORYSA Visual Injury (%) ‘Cheniere’ Obs: 45%
  ORYSA Visual Injury (%) ‘Clearfield’ Obs: 60%
  ORYSA Visual Injury (%) ‘Cocodrie’ Obs: 45%
  ORYSA Visual Injury (%) ‘Lemont’ Obs: 35%
  ORYSA Visual Injury (%) ‘M202’ Obs: 55%
  ORYSA Visual Injury (%) ‘Wells’ Obs: 15%

## Cc1ccc(NC(=O)NC(C)(C)c2ccccc2)cc1 [Daimuron, N-(4-methylphenyl)-N′-(1-methyl-1-phenylethyl)-urea]
ORYSA (rice); Safener Alone, 560 g ai/ha
  ‘M202’ ORYSA Visual Injury (%) Obs: 3.3%
ORYSA (rice); alone, 35 g ai/ha
  Visual Injury (%) ‘Lemont’ ORYSA Obs: 0%
ORYSA (rice); alone, 70 g ai/ha
  Visual Injury (%) ‘Lemont’ ORYSA Obs: 0%
ORYSA (rice); alone, 140 g ai/ha
  Visual Injury (%) ‘Lemont’ ORYSA Obs: 0%
ORYSA (rice); alone, 280 g ai/ha
  Visual Injury (%) ‘Lemont’ ORYSA Obs: 0%
ECHCO; 35 g ai/ha
  Visual Injury (%) ECHCO Obs: 5%
ECHCO; 70 g ai/ha
  Visual Injury (%) ECHCO Obs: 0%
ECHCO; 140 g ai/ha
  Visual Injury (%) ECHCO Obs: 0%
ECHCO; 280 g ai/ha
  Visual Injury (%) ECHCO Obs: 10%
SEBEX; 35 g ai/ha
  Visual Injury (%) SEBEX Obs: 0%
SEBEX; 70 g ai/ha
  Visual Injury (%) SEBEX Obs: 0%
SEBEX; 140 g ai/ha
  Visual Injury (%) SEBEX Obs: 0%
SEBEX; 280 g ai/ha
  Visual Injury (%) SEBEX Obs: 0%
CYPDI; 35 g ai/ha
  Visual Injury (%) CYPDI Obs: 0%
CYPDI; 70 g ai/ha
  Visual Injury (%) CYPDI Obs: 0%
CYPDI; 140 g ai/ha
  Visual Injury (%) CYPDI Obs: 0%
CYPDI; 280 g ai/ha
  Visual Injury (%) CYPDI Obs: 0%

## C=CCN(CC=C)C(=O)C(Cl)Cl [Dichlormid]
ORYSA (rice); safener 140 g ai/ha alone
  ORYSA Visual Injury (%) ‘Cheniere’ Obs: 0%
  ORYSA Visual Injury (%) ‘Cocodrie’ Obs: 0%
  ORYSA Visual Injury (%) ‘Lemont’ Obs: 0%

## CC(C)(SC(=O)N1CCCCC1)c1ccccc1 [Dimepiperate]
ORYSA (rice); safener 280 g ai/ha alone
  ORYSA Visual Injury (%) ‘M202’ Obs: 10%

## CCOC(=O)c1nc(C(Cl)(Cl)Cl)n(-c2ccc(Cl)cc2Cl)n1 [Fenchlorazole-ethyl]
ORYSA (rice); Safener Alone, 560 g ai/ha
  ‘M202’ ORYSA Visual Injury (%) Obs: 0.0%

## FC(F)(F)C(=NOCC1OCCO1)c1ccc(Cl)cc1 [Fluxofenim, 1-(4-chlorophenyl)-2,2,2-trifluoroethanone O-(1,3-dioxolan-2-ylmethyl)oxime]
ORYSA (rice); Safener Alone, 560 g ai/ha
  ‘M202’ ORYSA Visual Injury (%) Obs: 3.3%

## CC1(C)OC(c2ccco2)CN1C(=O)C(Cl)Cl (stereo not drawn) [Furilazole, 3-(dichloroacetyl)-5-(2-furanyl)-2,2-dimethyl-oxazolidine]
ORYSA (rice); Safener Alone, 560 g ai/ha
  ‘M202’ ORYSA Visual Injury (%) Obs: 3.3%
ORYSA (rice); safener 70 g ai/ha alone
  ORYSA Visual Injury (%) ‘Lemont’ Obs: 0%

## N#C/C(=N\OCC1OCCO1)c1ccccc1 [Oxabetrinil, (αZ)-α-[(1,3-dioxolan-2-yl)methoxyimino]-benzeneacetonitrile]
ORYSA (rice); alone, 35 g ai/ha
  Visual Injury (%) ‘Lemont’ ORYSA Obs: 0%
ORYSA (rice); alone, 70 g ai/ha
  Visual Injury (%) ‘Lemont’ ORYSA Obs: 15%
ORYSA (rice); alone, 140 g ai/ha
  Visual Injury (%) ‘Lemont’ ORYSA Obs: 0%
ORYSA (rice); alone, 280 g ai/ha
  Visual Injury (%) ‘Lemont’ ORYSA Obs: 10%
ECHCO; 35 g ai/ha
  Visual Injury (%) ECHCO Obs: 0%
ECHCO; 70 g ai/ha
  Visual Injury (%) ECHCO Obs: 0%
ECHCO; 140 g ai/ha
  Visual Injury (%) ECHCO Obs: 0%
ECHCO; 280 g ai/ha
  Visual Injury (%) ECHCO Obs: 0%
SEBEX; 35 g ai/ha
  Visual Injury (%) SEBEX Obs: 0%
SEBEX; 70 g ai/ha
  Visual Injury (%) SEBEX Obs: 0%
SEBEX; 140 g ai/ha
  Visual Injury (%) SEBEX Obs: 0%
SEBEX; 280 g ai/ha
  Visual Injury (%) SEBEX Obs: 0%
CYPDI; 35 g ai/ha
  Visual Injury (%) CYPDI Obs: 0%
CYPDI; 70 g ai/ha
  Visual Injury (%) CYPDI Obs: 0%
CYPDI; 140 g ai/ha
  Visual Injury (%) CYPDI Obs: 0%
CYPDI; 280 g ai/ha
  Visual Injury (%) CYPDI Obs: 0%
